Experimental data: patent US7528175B2, “Method of treating airway diseases with beta-adrenergic inverse agonists” (Inverseon, Inc., priority 2005, dated 2009)
“Also recorded” adds a separate entry of the source. Like-named read-outs stand apart in the source and are kept apart here.

Columns and labels:
[1] = tested on: patients with CHF; settings: cited from earlier work
[2] = tested on: β-adrenergic receptor; settings: U.S. Pat. No. 6,284,800; cited from earlier work
[3] = tested on: antigen-induced bronchoconstriction; settings: acute administration; cited from earlier work
[4] = tested on: tracheas from asthmatic mice; settings: chronic treatment of asthmatic mice, excised tracheas; cited from earlier work
[5] = tested on: asthmatic mice; assay: Airway resistance (Raw) response to methacholine in murine model of asthma (forced oscillation); assay type: in vivo, Balb/cJ mice; settings: for airway hyperresponsiveness (Raw): chronic treatment 7 days, 20 mg/kg (metoprolol 3× daily s.c.; timolol in chow)
Method: Balb/cJ mice aged 6 weeks (Jackson Animal Laboratory, Bar Harbor, Me.) were housed under specific pathogen-free conditions and fed a chicken ovalbumin-free diet. The Animal Research Ethics Boards of both the University of Houston and the Baylor College of Medicine approved all experiments reported here. […] Mice were sensitized with subcutaneous injection of 25 μg of ovalbumin adsorbed to aluminum hydroxide on protocol days 2, 9, and 16. Subsequently, mice were given 50 μL of saline solution containing 25 μg of ovalbumin intranasally, on a daily basis, from protocol days 23 through 27. A group of ovalbumin-sensitized saline-challenged mice serves as controls for systemic sensitization and respiratory challenges with ovalbumin. Prior to intranasal administrations, mice were sedated with halothane vapor.
To examine the effects of duration of β-adrenergic ligand therapy on the phenotype of the murine model of asthma, the experimental drugs were administered either acutely or chronically to different groups of asthmatic mice.
Asthmatic mice on acute therapy were given a single intravenous bolus infusion of either β-adrenergic drug or normal saline on protocol day 28, 15 minutes before airway responsiveness to methacholine was determined. […] […] […] These concentrations were chosen based on those producing therapeutic effects in mice in previously published studies. The non-asthmatic mice were fed normal chow.
On protocol day 28, mice were anesthetized, tracheotomized, and connected to a computer-controlled small animal ventilator (Flexivent, Scientific Respiratory Equipment, Inc., Montreal, Canada). Airway resistance (Raw) was measured using the forced oscillation technique. The cellular composition of bronchoalveolar lavage fluid (BALF) was also determined.
To induce airway constriction, a solution containing 150 μg/mL of acetyl-α-methylcholine chloride (methacholine) (Sigma Chemical, St. Louis, Mo.) was infused intravenously at constant rates using a syringe infusion pump (Raze Scientific Instruments, Stanford, Conn.). […] Each methacholine dose was administered for 3 to 5 minutes, during which data were sampled at 1-minute intervals and then averaged.
The complex input impedance of the respiratory system was computed and the value of the real part of respiratory system impedance at 19.75 Hz was taken to reflect the magnitude of airway resistance (Raw). To examine the degree of airway responsiveness of each animal, the values for Raw as a function of methacholine doses were plotted. The largest value for Raw achieved in response to methacholine stimulation was referred to as Rawpeak. For mice that achieved a plateau in the methacholine dose-Raw response curve, the ED50 was calculated by linear interpolation using the GraphPad Prism4 (GraphPad Software, Inc.). […] The Bonferroni test was used to examine the statistical differences between experimental groups. The effects of acute drug treatments on baseline respiratory system mechanics were assessed using a two-tailed paired t-test. A value of P<0.05 was considered significant.
For these experiments, salbutamol was used for chronic administration at 0.5 mg/kg/day with a minipump and for acute administration at 0.15 mg/kg by i.v. bolus 15 minutes prior to challenge. Alprenolol was used at a high dose of 7200 ppm in chow or at a low dose of 720 ppm in chow. Carvedilol was used at a high dose of 2400 ppm in chow or at a low dose of 720 ppm in chow.

[6] = tested on: asthmatic mice; assay: BALF cell number and type (Example 11); assay type: in vivo; settings: vs nontreated asthmatic mice
Description: The same mice as described in Example 1 underwent bronchoalveolar lavage (BAL) to determine the total number and type of immune system cells in the lung. BAL Fluid (BALF) was irrigated and collected from the lungs of mice as previously described (Evans K L, Bond R A, Corry […]. Frequency dependence of respiratory system mechanics during induced constriction in a murine model of asthma. J Appl Physiol. 2003 January;94(1):245-52). […] The number of neutrophils was increased in nontreated asthmatic mice compared to mice that served as controls for chronic beta-blocker treatments. In comparison to their notable effects on airway responsiveness, the β-AR ligands tested had very little effect on BALF cellularity. […] FIG. 12 has 3 panels of cell number and type of cells from the bronchoalveolar lavage fluid of asthmatic mice treated acutely or chronically with beta adrenergic ligands. Cells were identified as eosinophils (black bars), macrophages (hatched bars), neutrophils (grey bars), and lymphocytes (white bars) by standard morphologic criteria. At least 200 cells were counted per cytospin preparation, and the absolute number of each cell type was calculated based on the volume of fluid recovered from the lavage. […] Data are expressed as mean ±SEM and are representative of 6-25 animals per group. #P<0.05 compared to NTX, *P<0.05 compared to control (ANOVA).

[7] = target: β2-adrenergic receptor (Mus musculus, UniProt P18762); assay type: binding, mice; settings: for Bmax: 15 Minutes drug treatment; for Bmax / βmax: lung membranes of asthmatic mice, mean±SEM; for βmax: 28 Days drug treatment; for level of the β2-adrenergic receptor: chronic treatment, asthmatic mice
Method: (§1) β2-adrenergic receptor numbers were measured in asthmatic mice as follows. […] Mice were sacrificed and lung membranes were isolated as follows. Frozen lung tissue was homogenized in an ice-cold buffer containing 0.32 M sucrose and 25 mM Tris (pH 7.4) using a polytron (Pro 200, Pro Scientific, Inc.). The homogenate was centrifuged at 1000×g for 10 min at 4° C. The resulting supernatant was centrifuged at 40,000×g for 20 min at 4° C. The pellet was suspended in an ice-cold 25 mM Tris-HCl buffer (pH 7.4) and centrifuged at 40,000×g for 20 min at 4° C. The final pellet was suspended in 200 μL of 25 mM Tris-HCl (pH 7.4); membrane protein concentration was determined by BCA protein assay kit. […] The incubation was done at 37° C. for 2 h and terminated by rapid vacuum filtration through glass fiber filters. The filters were washed three times with 250 μL of cold wash buffer (25 mM Tris-HCl, pH 7.4) and the radioactivity determined in a counter. […] Receptor densities are expressed as femtomoles of sites per milligram of protein. Bmax is determined by nonlinear regression of the saturation binding curves.

[8] = tested on: β2-adrenergic receptor; assay type: binding, mice; settings: 2 days of administration
Method: as §1

[9] = cited from earlier work
[10] = tested on: asthmatic mice; assay: Total number of immune cells in BALF (Example 12); assay type: in vivo; settings: chronic treatment; compared to NS/NC mice
Method: Bronchial alveolar lavage fluid was collected from treated animals and total immune cell number was determined and the total number of eosinophils was also determined. Additionally, the interleukin 10 (IL-10) levels were determined in the mice.

[11] = chronic use; cited from earlier work
[12] = asthmatic mice, acute: single intravenous bolus 15 minutes before methacholine
[13] = asthmatic mice, chronic administration for 28 days

Chain of β2-adrenergic receptor (Mus musculus, UniProt P18762) (P18762 whole entry): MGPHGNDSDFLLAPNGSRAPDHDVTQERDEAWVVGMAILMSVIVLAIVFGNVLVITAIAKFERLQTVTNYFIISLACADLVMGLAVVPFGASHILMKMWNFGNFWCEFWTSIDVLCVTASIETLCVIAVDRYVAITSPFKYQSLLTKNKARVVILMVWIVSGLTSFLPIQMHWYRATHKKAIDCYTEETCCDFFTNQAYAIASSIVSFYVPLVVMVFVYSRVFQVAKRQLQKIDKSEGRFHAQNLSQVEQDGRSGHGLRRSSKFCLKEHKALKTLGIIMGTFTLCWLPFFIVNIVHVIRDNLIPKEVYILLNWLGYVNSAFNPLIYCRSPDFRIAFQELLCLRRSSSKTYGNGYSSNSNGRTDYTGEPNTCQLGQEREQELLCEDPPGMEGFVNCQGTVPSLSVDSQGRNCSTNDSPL

CC(C)(Cc1c[nH]c2ccccc12)NCC(O)COc1ccccc1C#N (stereo not shown) [Bucindolol, bucindolol]
clinical outcome in congestive heart failure [1]: failed to demonstrate any benefit over placebo

CC(C)NC[C@@H](O)COc1cccc2ccccc12 [D-propranolol]
activity with respect to β-adrenergic receptors [2]: inactive | antigen-induced bronchoconstriction and airway hyperresponsiveness [3]: beneficial in inhibiting antigen-induced bronchoconstriction and reducing airway hyperresponsiveness

Cc1ccc(OCC(O)C(C)NC(C)C)c2c1CCC2 (stereo not shown) [ICI-118,551]
effectiveness on tracheal contraction in response to methacholine (rank) [4]: then ICI-118,551

CC(C)NC[C@H](O)COc1cccc2ccccc12 [L-form of propranolol, propranolol]
specific lung resistance [3]: increased specific lung resistance

C=CCc1ccccc1OCC(O)CNC(C)C (stereo not shown) [alprenolol]
Decreased Raw ([5]; 15 minutes of administration): yes | Decreased Raw ([5]; 2 days of administration): no | Decreased Raw ([5]; 28 days of administration): no | airway responsiveness to methacholine provocation (Raw) [5, 12]: airway responsiveness was diminished | airway responsiveness to methacholine provocation (Raw) [5, 13]: does not reduce airway hyperresponsiveness; also recorded: without any activity; also recorded: provides no benefit upon chronic administration | methacholine doses at which Raw was significantly decreased vs non-treated (P<0.05) ([5]; asthmatic mice, single intravenous bolus): ≥ 408 µg/kg/min | effectiveness on tracheal contraction in response to methacholine (rank) [4]: The most effective compound | BALF cellularity ([6]; acute treatment (15 minutes)): significant increase in the number of macrophages | BALF cellularity ([6]; chronic treatment (28 days)): no changes in BALF cellularity were observed | Bmax [7]: 299.5 ± 12.19 femtomoles of sites per milligram of protein | βmax [7]: 179.2 ± 53.05 femtomoles of sites per milligram of protein | Increased β2AR density ([7]; 15 minutes of administration): yes | Increased β2AR density ([7]; 28 days of administration): no | level of the β2-adrenergic receptor [7]: slight decrease | Increased β2AR density [8]: no

CCCC1O[C@@H]2C[C@H]3[C@@H]4CCC5=CC(=O)C=C[C@]5(C)[C@H]4[C@@H](O)C[C@]3(C)[C@]2(C(=O)CO)O1 (stereo partly shown) [budesonide]
plasma clearance relative to average clearance of prednisolone ([9]; in vivo): about 10 fold | systemic availability of the swallowed fraction ([9]; in vivo): 10.7±4.3% | plasma clearance of the 2 enantiomers, children with asthma vs healthy adults ([9]; per kilogram of bodyweight, 6 children, 11 adults): about 50%

C[C@@H]1C[C@H]2[C@@H]3C[C@H](F)C4=CC(=O)C=C[C@]4(C)[C@@]3(F)[C@@H](O)C[C@]2(C)[C@@]1(O)C(=O)SCF [fluticasone]
first-pass hepatic metabolism of systemically absorbed drug ([9]; in vivo): almost complete

COCCc1ccc(OCC(O)CNC(C)C)cc1 (stereo not shown) [metoprolol]
airway hyperresponsiveness (Raw) [5]: effective in reducing airway hyperresponsiveness | clinical outcome in congestive heart failure [1]: significant mortality reduction

CC(C)(C)NCC(O)c1ccc(O)c(CO)c1 (stereo not shown) [salbutamol]
total number of immune cells in BALF [10]: statistically significant at P<0.05 total higher numbers of immune cells | Decreased Raw ([5]; 15 minutes of administration): yes | Decreased Raw ([5]; 2 days of administration): no | Decreased Raw ([5]; 28 days of administration): no | airway responsiveness to methacholine provocation (Raw) [5, 12]: reduced the level of airway responsiveness to methacholine provocation and the level of airway resistance | airway responsiveness to methacholine provocation (Raw) [5, 13]: no protection was observed | BALF cellularity ([6]; acute treatment (15 minutes)): did not alter the cellular composition of BALF | BALF cellularity ([6]; chronic treatment (28 days)): significant increase in the number of eosinophils | bioavailability of inhaled drug ([9]; 10 patients with cystic fibrosis vs healthy adults): greater than that in healthy adults | Bmax [7]: 256.5 ± 29.24 femtomoles of sites per milligram of protein | βmax [7]: 97.0 ± 23.02 femtomoles of sites per milligram of protein | Increased β2AR density ([7]; 15 minutes of administration): yes | Increased β2AR density ([7]; 28 days of administration): no | level of the β2-adrenergic receptor [7]: slight decrease | Increased β2AR density [8]: no

OCc1cc(C(O)CNCCCCCCOCCCCc2ccccc2)ccc1O (stereo not shown) [salmeterol]
trial outcome [11]: stopped due to increased death rates | time for majority of a dose to be eliminated in the feces ([9]; in vivo): ≤ 72 h

CC(C)(C)NCC(O)c1cc(O)cc(O)c1 (stereo not shown) [terbutaline]
increase in bioavailability from oral component ([9]; from an MDI): 6.7% | absorption through the lung ([9]; healthy smokers vs healthy nonsmokers): absorbed through the lung more rapidly in healthy smokers than in healthy nonsmokers

CC(C)(C)NC[C@H](O)COc1nsnc1N1CCOCC1 [timolol]
airway hyperresponsiveness (Raw) [5]: effective in reducing airway hyperresponsiveness
